Broadly, the pIC50 is the negative decadic logarithm of the IC50, by convention in mol/L.

10 molecules from US8039514B2, “Sulfonamide compounds and use thereof” (Asahi Kasei Pharma Corporation, priority 2008, dated 2011) can be followed below.

pIC50: −log10 of the molar value. Where only a bound is given, the exact number is not on record here.

The test has as its target T1, human calcium-sensing receptor (CaSR) (Homo sapiens, UniProt P41180).
T1 construct: expressed in transfected cells
T1 sequence (P41180 20-1078): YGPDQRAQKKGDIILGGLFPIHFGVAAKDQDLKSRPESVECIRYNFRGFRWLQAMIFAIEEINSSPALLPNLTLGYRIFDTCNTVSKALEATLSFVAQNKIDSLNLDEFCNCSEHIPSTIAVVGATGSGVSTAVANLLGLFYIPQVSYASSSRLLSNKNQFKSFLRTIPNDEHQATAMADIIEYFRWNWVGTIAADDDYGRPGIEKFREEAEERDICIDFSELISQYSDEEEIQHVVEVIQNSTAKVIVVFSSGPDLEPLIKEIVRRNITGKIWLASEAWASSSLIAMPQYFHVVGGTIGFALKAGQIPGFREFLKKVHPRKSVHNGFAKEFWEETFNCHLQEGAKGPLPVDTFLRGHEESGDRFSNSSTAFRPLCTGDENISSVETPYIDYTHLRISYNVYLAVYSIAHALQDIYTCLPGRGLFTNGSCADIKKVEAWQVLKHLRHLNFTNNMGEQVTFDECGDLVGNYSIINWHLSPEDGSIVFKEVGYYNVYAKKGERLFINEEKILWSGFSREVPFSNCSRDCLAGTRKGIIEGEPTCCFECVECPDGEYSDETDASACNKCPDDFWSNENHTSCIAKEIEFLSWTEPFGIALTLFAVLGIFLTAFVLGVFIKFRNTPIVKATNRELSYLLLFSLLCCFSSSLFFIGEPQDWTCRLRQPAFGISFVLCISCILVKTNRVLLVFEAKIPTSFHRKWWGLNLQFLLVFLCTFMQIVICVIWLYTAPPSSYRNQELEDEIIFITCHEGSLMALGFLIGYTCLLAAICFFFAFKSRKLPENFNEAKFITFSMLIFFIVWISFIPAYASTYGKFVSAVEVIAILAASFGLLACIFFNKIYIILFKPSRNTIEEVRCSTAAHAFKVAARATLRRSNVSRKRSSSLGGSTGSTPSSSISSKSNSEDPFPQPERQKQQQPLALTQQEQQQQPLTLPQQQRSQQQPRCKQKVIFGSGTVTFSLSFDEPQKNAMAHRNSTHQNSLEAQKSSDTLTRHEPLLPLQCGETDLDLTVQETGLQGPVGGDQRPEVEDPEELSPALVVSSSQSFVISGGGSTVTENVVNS
Nature of the test: intracellular Ca assay, CaSR antagonist activity in HEK293/hCaSR cells. The conditions noted are these: Fura2-AM, inhibition of response to calcium chloride ligand solution, read-out: IC50 values according to the intracellular Ca assay (CaSR antagonist activity). It counts as cell-based. How it is done:
HEK293 cells stably expressing human calcium-sensing receptor (CaSR) (termed HEK293/hCaSR cells) were used. HEK293/hCaSR cells were cultured in a culture medium [DMEM medium containing 0.5 mg/mL Geneticin, 50 Unit/mL penicillin, 50 μg/mL streptomycin and 10% fetal bovine serum (FBS), all manufactured by Invitrogen] to semiconfluent in an incubator at 37° C. under 5% carbon dioxide atmosphere.
Cultured cells were washed with phosphate buffered saline (PBS(−), manufactured by Dainippon Sumitomo Pharmaceutical Company) which had been prewarmed to 37° C., added with PBS(−) containing 10 mM ethylenediamine tetraacetic acid (EDTA), and then incubated in an incubator at 37° C. for 10 minutes. After adding the culture medium to separate the cells, cell suspension was transferred to a centrifuge tube. Cells were collected by centrifuge at 1,500 rpm for 3 minutes, and resuspended in Ca assay buffer [20 mM HEPES buffer (pH 7.4), 115 mM sodium chloride, 5.4 mM potassium chloride, 0.8 mM magnesium chloride, 0.8 mM calcium chloride, 13.8 mM D(+)-glucose (all manufactured by Wako Pure Chemicals) and 0.1% bovine serum albumin (manufactured by SIGMA)] containing 0.2% Pluronic F-127 (manufactured by Molecular Probes) and […] Fura2-AM (manufactured by DOJINDO LABORATORIES) to obtain a cell suspension of 5×10^6 cells/mL. After incubating at 37° C. for 30 minutes, the cells were washed twice with the Ca assay buffer and suspended in the same buffer to obtain a cell suspension of 1×10^6 cells/60 μL. 60 μL of the cell suspension was aliquoted to each well of a 96 well UV microplate (manufactured by Corning Co.) to give a cell plate.
The test compound was diluted with the Ca assay buffer to five times the final concentration and then 80 μL of the diluted compound was applied to each well of a 96 well round bottomed microplate (manufactured by Corning Co.) to give a sample plate. 80 μL of the Ca assay buffer containing 7.5 mM calcium chloride (i.e., ligand solution) was applied to each well of a 96 well round bottomed microplate to give a ligand plate. Then, thus prepared sample plate, ligand plate, and the cell plate were placed in Functional Drug Screening System (FDSS) 4000 (manufactured by Hamamatsu Photonics K.K.) which had been preswitched on and prewarmed to 37° C. Measurements were then carried out as follows. After incubating the cell plate for 180 seconds, fluorescence intensity was measured every two seconds (excitation wavelength; 340 nm and 380 nm, measurement wavelength; 500 nm). After the measurement for 40 seconds, 20 μL of the test compound solution from the sample plate was added to the cell plate, followed by continuous measurement for 160 seconds. Then, 20 μL of the ligand solution from the ligand plate was added to the cell plate, followed by continuous measurement for 100 seconds.
Amount of change in intracellular Ca concentration is indicated as a peak height of the ratio of the fluorescence intensity with excitation of 340 nm and 380 nm (i.e., fluorescence intensity with excitation at 340 nm/fluorescence intensity with excitation at 380 nm) that is obtained from the difference between the maximum ratio after adding the ligand solution and the ratio before adding the ligand solution. Further, when the peak height obtained from the Ca assay buffer containing no test compound has inhibition ratio of 0% while the peak height obtained from the Ca assay buffer containing no calcium chloride as a ligand solution has inhibition ratio of 100%, inhibition ratio for each test compound (i.e., CaSR antagonist activity) was calculated.

For `Cc1cc(-c2cccc(S(=O)(=O)N(C)C[C@H](O)CNC(C)(C)CC3Cc4ccccc4C3)c2)ccc1C(=O)O` [Exp. 3-52, (R)-3′-(N-(3-(1-(2,3-dihydro-1H-inden-2-yl)-2-methylpropan-2-ylamino)-2-hydroxypropyl)-N-methylsulfamoyl)-3-methylbiphenyl-4-carboxylic acid], the pIC50 was 6.00 to 6.52.
Next, `CN(C[C@H](O)CNC(C)(C)CC1Cc2ccccc2C1)S(=O)(=O)c1ccc(-c2cccc(C(=O)O)c2)cc1C(F)(F)F` [Exp. 3-124, (R)-4′-(N-(3-(1-(2,3-dihydro-1H-inden-2-yl)-2-methylpropan-2-ylamino)-2-hydroxypropyl)-N-methylsulfamoyl)-3′-(trifluoromethyl)biphenyl-3-carboxylic acid]: at least 6.52; `Cc1ccc(-c2cccc(S(=O)(=O)N(C)C[C@H](O)CNC(C)(C)Cc3ccc4ccccc4c3)c2)cc1C(=O)O` [Exp. 3-7, (R)-3′-(N-(2-hydroxy-3-(2-methyl-1-(naphthalen-2-yl)propan-2-ylamino)propyl)-N-methylsulfamoyl)-4-methylbiphenyl-3-carboxylic acid]: 6.00 to 6.52; `CN(C[C@H](O)CNC(C)(C)CC1Cc2ccccc2C1)S(=O)(=O)c1cccc(-c2ccc(C(=O)O)cc2)c1` [Exp. 3-50, (R)-3′-(N-(3-(1-(2,3-dihydro-1H-inden-2-yl)-2-methylpropan-2-ylamino)-2-hydroxypropyl)-N-methylsulfamoyl)biphenyl-4-carboxylic acid]: at least 6.52.
For `CN(C[C@H](O)CNC(C)(C)CC1Cc2ccccc2C1)S(=O)(=O)c1cccc(-c2c(Cl)cc(C(=O)O)cc2Cl)c1` [Exp. 3-228, (R)-2,6-dichloro-3′-(N-(3-(1-(2,3-dihydro-1H-inden-2-yl)-2-methylpropan-2-ylamino)-2-hydroxypropyl)-N-methylsulfamoyl)biphenyl-4-carboxylic acid] the value was at least 6.52; for `CN(C[C@H](O)CNC(C)(C)Cc1ccc2ccccc2c1)S(=O)(=O)c1ccc(-c2cccc(C=CC(=O)O)c2)cc1` [Exp. 3-39, (R)-3-(4′-(N-(2-hydroxy-3-(2-methyl-1-(naphthalen 2-yl)propan-2-ylamino)propyl)-N-methylsulfamoyl)biphenyl-3-yl)acrylic acid], 6.00 to 6.52; for `CN(C[C@H](O)CNC(C)(C)Cc1ccc2ccccc2c1)S(=O)(=O)c1cccc(-c2ccc(C(=O)O)s2)c1` [Exp. 3-26, (R)-5-(3-(N-(2-hydroxy-3-(2-methyl-1-(naphthalen-2-yl)propan-2-ylamino)propyl)-N-methylsulfamoyl)phenyl)thiophen-2-carboxylic acid], 6.00 to 6.52.
For `CN(C[C@H](O)CNC(C)(C)Cc1ccc2ccccc2c1)S(=O)(=O)c1cccc(-c2cc(N)cc(C(=O)O)c2)c1` [Exp. 3-17, (R)-5-amino-3′-(N-(2-hydroxy-3-(2-methyl-1-(naphthalen-2-yl)propan-2-ylamino)propyl)-N-methylsulfamoyl)biphenyl-3-carboxylic acid] the value was 6.00 to 6.52; for `COc1ccc(-c2cc(S(=O)(=O)N(C)C[C@H](O)CNC(C)(C)CC3Cc4ccccc4C3)sc2Cl)cc1CCC(=O)O` [Exp. 5-29, (R)-3-(5-(2-chloro-5-(N-(3-(1-(2,3-dihydro-1H-inden-2-yl)-2-methylpropan-2-ylamino)-2-hydroxypropyl)-N-methylsulfamoyl)thiophen-3-yl)-2-methoxyphenyl)propionic acid], at least 6.52; for `CN(C[C@H](O)CNC(C)(C)CCCc1ccccc1)S(=O)(=O)c1ccc(-c2cccc(CCC(=O)O)c2)c(Cl)c1` [Exp. 3-185, (R)-3-(2′-chloro-4′-(N-(2-hydroxy-3-(2-methyl-5-phenylpentan-2-ylamino)propyl)-N-methylsulfamoyl)biphenyl-3-yl)propionic acid], at least 6.52.
